Laboratory results from PMC11947619, “Molecular mechanism of Mad2 conformational conversion promoted by the Mad2‐interaction motif of Cdc20” (Protein Science : A Publication of the Protein Society, 2025).

System: C‐Mad2
Assay: NMR chemical shift perturbations of C-Mad2 by Cdc20 residues 138–152
Format: binding, human
Conditions: inferred from small CSPs, spectra of C-Mad2:Cdc20^MIM-123-152 vs C-Mad2:Cdc20^MIM-123-137, and lack of cryo-EM structural information
Description: FIGURE 3 Mad2 conversion rates with different Cdc20^MIM peptides. (a) Schematic of human Cdc20. Box1: Box1 motif; C1: C‐box motif; K1: KEN box motif; MIM: Mad2‐interacting motif, residues 123–137; WD40: WD40 domain, residues 182–480; IR: IR tail. (b) Mad2 conversion in the presence of different Cdc20^MIM peptides. Mad2 conversion was traced at 25°C and the changes in the first 30 min are shown. A black tick indicates where conversion is considered complete. NMR data for O‐Mad2^R133A with Cdc20^MIM‐111‐138 shown for comparison are from Fischer et al. ([2022]). (c) The Cdc20^MIM‐138‐152‐binding site was identified by comparing the spectra of C‐Mad2:Cdc20^MIM‐123‐137 with C‐Mad2:Cdc20^MIM‐123‐152 (boxed in b) and analyzing their CSPs (Figure S8e,f). The Cdc20^MIM‐138‐152‐binding site (blue) is mapped onto the structure of C‐Mad2:Cdc20 from the cryo‐EM structure of the APC/C:MCC complex (PDB 6TLJ) (Alfieri et al., [2016], Alfieri et al., [2020]). The O‐Mad2 structural model is superimposed onto the C‐Mad2 structure for comparison. Cdc20 residues 138–152 are in yellow and residues 126–138 are in green. The β7/β8 hairpin in O‐Mad2 (red) blocks both the binding sites for Cdc20 residues 126–138 and residues 138–152. (d) As in c except the β7/β8 hairpin in O‐Mad2 is removed to expose the Cdc20 binding sites. […] (f) Cdc20^MIM‐123‐152 was titrated into Mad2^∆β7/β8 and its binding was analyzed by NMR. […]

**Q.** Which “association with C-Mad2, in words” value does the source give for “QNAPEGYQNRLKVLY [Cdc20^MIM‐138‐152, peptide of Cdc20 residues 138–152]” here?
**A.** The value was “only weakly associated with C‐Mad2”.
